Experimental data as given in ChEMBL document CHEMBL3046635, “Synthesis and Herbicidal Activity of New Pyrazole-4-carboxamide Derivatives” (J Pestic Sci, 2004).
Active and inactive are the calls of the source.

Test system: Oryza sativa
Experiment: Phytotoxicity against Oryza sativa cv. Koshihikari (rice) at 100 g a.i/ha measured after 14 days
Type: organism-based
Conditions: in vivo, 336 h

Row | Compound | Activity
1 | Cn1cc(C(=O)Nc2ccccc2)c(OCc2cccc(C(F)(F)F)c2)n1 | Non-toxic

Test system: Pontederia vaginalis
Experiment: Pre-emergence herbicidal activity against Monochoria vaginalis at 500 g a.i/ha measured after 14 days
Type: functional, organism-based
Conditions: not given

Row | Compound | Activity
2 | Cn1cc(C(=O)Nc2ccccc2)c(OCc2cccc(C(F)(F)F)c2)n1 | Active

Test system: Schoenoplectiella juncoides
Experiment: Post-emergence herbicidal activity against Schoenoplectiella juncoides assessed as bleaching of stem/leaf parts; further: test concentration or dose not given here
Type: functional, organism-based
Conditions: not given

Row | Compound | Activity
3 | Cn1cc(C(=O)Nc2ccccc2)c(OCc2cccc(C(F)(F)F)c2)n1 | Active

Test system: Ammannia multiflora
Experiment: Pre-emergence herbicidal activity against Ammannia multiflora at 500 g a.i/ha measured after 14 days
Type: functional, organism-based
Conditions: not given

Row | Compound | Activity
4 | Cn1cc(C(=O)Nc2ccccc2)c(OCc2cccc(C(F)(F)F)c2)n1 | Active

Test system: Rotala indica
Experiment: Pre-emergence herbicidal activity against Rotala indica at 100 g a.i/ha measured after 14 days
Type: functional, organism-based
Conditions: not given

Row | Compound | Activity
5 | Cn1cc(C(=O)Nc2ccccc2)c(OCc2cccc(C(F)(F)F)c2)n1 | Active

Test system: Ammannia multiflora
Experiment: Pre-emergence herbicidal activity against Ammannia multiflora assessed as bleaching of stem/leaf parts
Type: functional, organism-based
Conditions: not given

Row | Compound | Activity
6 | Cn1cc(C(=O)Nc2ccccc2)c(OCc2cccc(C(F)(F)F)c2)n1 | Active

Test system: Pontederia vaginalis
Experiment: Post-emergence herbicidal activity against Monochoria vaginalis assessed as bleaching of stem/leaf parts; further: test concentration or dose not given here
Type: functional, organism-based
Conditions: not given

Row | Compound | Activity
7 | Cn1cc(C(=O)Nc2ccccc2)c(OCc2cccc(C(F)(F)F)c2)n1 | Active

Test system: Rotala indica
Experiment: Pre-emergence herbicidal activity against Rotala indica assessed as bleaching of stem/leaf parts
Type: functional, organism-based
Conditions: not given

Row | Compound | Activity
8 | Cn1cc(C(=O)Nc2ccccc2)c(OCc2cccc(C(F)(F)F)c2)n1 | Active

Test system: Lindernia procumbens
Experiment: Post-emergence herbicidal activity against Lindernia procumbens assessed as bleaching of stem/leaf parts; further: test concentration or dose not given here
Type: functional, organism-based
Conditions: not given

Row | Compound | Activity
9 | Cn1cc(C(=O)Nc2ccccc2)c(OCc2cccc(C(F)(F)F)c2)n1 | Active

Test system: Echinochloa oryzicola
Experiment: Post-emergence herbicidal activity against Echinochloa oryzicola assessed as bleaching of stem/leaf parts; further: test concentration or dose not given here
Type: functional, organism-based
Conditions: not given

Row | Compound | Activity
10 | Cn1cc(C(=O)Nc2ccccc2)c(OCc2cccc(C(F)(F)F)c2)n1 | Active

Test system: Eleocharis acicularis
Experiment: Post-emergence herbicidal activity against Eleocharis acicularis assessed as bleaching of stem/leaf parts; further: test concentration or dose not given here
Type: functional, organism-based
Conditions: not given

Row | Compound | Activity
11 | Cn1cc(C(=O)Nc2ccccc2)c(OCc2cccc(C(F)(F)F)c2)n1 | Active

Test system: Rotala indica
Experiment: Pre-emergence herbicidal activity against Rotala indica at 500 g a.i/ha measured after 14 days
Type: functional, organism-based
Conditions: not given

Row | Compound | Activity
12 | Cn1cc(C(=O)Nc2ccccc2)c(OCc2cccc(C(F)(F)F)c2)n1 | Active

Test system: Ammannia multiflora
Experiment: Post-emergence herbicidal activity against Ammannia multiflora assessed as bleaching of stem/leaf parts; further: test concentration or dose not given here
Type: functional, organism-based
Conditions: not given

Row | Compound | Activity
13 | Cn1cc(C(=O)Nc2ccccc2)c(OCc2cccc(C(F)(F)F)c2)n1 | Active

Test system: Pontederia vaginalis
Experiment: Pre-emergence herbicidal activity against Monochoria vaginalis at 100 g a.i/ha measured after 14 days
Type: functional, organism-based
Conditions: not given

Row | Compound | Activity
14 | Cn1cc(C(=O)Nc2ccccc2)c(OCc2cccc(C(F)(F)F)c2)n1 | Active

Test system: Elatine triandra
Experiment: Post-emergence herbicidal activity against Elatine triandra assessed as bleaching of stem/leaf parts; further: test concentration or dose not given here
Type: functional, organism-based
Conditions: not given

Row | Compound | Activity
15 | Cn1cc(C(=O)Nc2ccccc2)c(OCc2cccc(C(F)(F)F)c2)n1 | Active

Test system: Cyperus difformis
Experiment: Pre-emergence herbicidal activity against Cyperus difformis at 100 g a.i/ha measured after 14 days
Type: functional, organism-based
Conditions: not given

Row | Compound | Activity
16 | Cn1cc(C(=O)Nc2ccccc2)c(OCc2cccc(C(F)(F)F)c2)n1 | inactive

Test system: Echinochloa oryzicola
Experiment: Pre-emergence herbicidal activity against Echinochloa oryzicola at 100 g a.i/ha measured after 14 days
Type: functional, organism-based
Conditions: not given

Row | Compound | Activity
17 | Cn1cc(C(=O)Nc2ccccc2)c(OCc2cccc(C(F)(F)F)c2)n1 | Active

Test system: Schoenoplectiella juncoides
Experiment: Pre-emergence herbicidal activity against Schoenoplectiella juncoides at 100 g a.i/ha measured after 14 days
Type: functional, organism-based
Conditions: not given

Row | Compound | Activity
18 | Cn1cc(C(=O)Nc2ccccc2)c(OCc2cccc(C(F)(F)F)c2)n1 | inactive

Test system: Lindernia procumbens
Experiment: Pre-emergence herbicidal activity against Lindernia procumbens at 500 g a.i/ha measured after 14 days
Type: functional, organism-based
Conditions: not given

Row | Compound | Activity
19 | Cn1cc(C(=O)Nc2ccccc2)c(OCc2cccc(C(F)(F)F)c2)n1 | Active

Test system: Cyperus difformis
Experiment: Pre-emergence herbicidal activity against Cyperus difformis at 500 g a.i/ha measured after 14 days
Type: functional, organism-based
Conditions: not given

Row | Compound | Activity
20 | Cn1cc(C(=O)Nc2ccccc2)c(OCc2cccc(C(F)(F)F)c2)n1 | Active

Test system: Lindernia procumbens
Experiment: Pre-emergence herbicidal activity against Lindernia procumbens at 100 g a.i/ha measured after 14 days
Type: functional, organism-based
Conditions: not given

Row | Compound | Activity
21 | Cn1cc(C(=O)Nc2ccccc2)c(OCc2cccc(C(F)(F)F)c2)n1 | Active

Test system: Eleocharis acicularis
Experiment: Pre-emergence herbicidal activity against Eleocharis acicularis at 100 g a.i/ha measured after 14 days
Type: functional, organism-based
Conditions: not given

Row | Compound | Activity
22 | Cn1cc(C(=O)Nc2ccccc2)c(OCc2cccc(C(F)(F)F)c2)n1 | Active

Test system: Eleocharis acicularis
Experiment: Pre-emergence herbicidal activity against Eleocharis acicularis assessed as bleaching of stem/leaf parts
Type: functional, organism-based
Conditions: not given

Row | Compound | Activity
23 | Cn1cc(C(=O)Nc2ccccc2)c(OCc2cccc(C(F)(F)F)c2)n1 | Active

Test system: Elatine triandra
Experiment: Pre-emergence herbicidal activity against Elatine triandra assessed as bleaching of stem/leaf parts
Type: functional, organism-based
Conditions: not given

Row | Compound | Activity
24 | Cn1cc(C(=O)Nc2ccccc2)c(OCc2cccc(C(F)(F)F)c2)n1 | Active

Test system: Oryza sativa
Experiment: Phytotoxicity against Oryza sativa cv. Koshihikari (rice) at 500 g a.i/ha measured after 14 days
Type: organism-based
Conditions: in vivo, 336 h

Row | Compound | Activity
25 | Cn1cc(C(=O)Nc2ccccc2)c(OCc2cccc(C(F)(F)F)c2)n1 | Non-toxic

Test system: Ammannia multiflora
Experiment: Pre-emergence herbicidal activity against Ammannia multiflora at 100 g a.i/ha measured after 14 days
Type: functional, organism-based
Conditions: not given

Row | Compound | Activity
26 | Cn1cc(C(=O)Nc2ccccc2)c(OCc2cccc(C(F)(F)F)c2)n1 | Active

Test system: Rotala indica
Experiment: Post-emergence herbicidal activity against Rotala indica assessed as bleaching of stem/leaf parts; further: test concentration or dose not given here
Type: functional, organism-based
Conditions: not given

Row | Compound | Activity
27 | Cn1cc(C(=O)Nc2ccccc2)c(OCc2cccc(C(F)(F)F)c2)n1 | Active

Test system: Schoenoplectiella juncoides
Experiment: Pre-emergence herbicidal activity against Schoenoplectiella juncoides at 500 g a.i/ha measured after 14 days
Type: functional, organism-based
Conditions: not given

Row | Compound | Activity
28 | Cn1cc(C(=O)Nc2ccccc2)c(OCc2cccc(C(F)(F)F)c2)n1 | Active

Test system: Echinochloa oryzicola
Experiment: Pre-emergence herbicidal activity against Echinochloa oryzicola assessed as bleaching of stem/leaf parts
Type: functional, organism-based
Conditions: not given

Row | Compound | Activity
29 | Cn1cc(C(=O)Nc2ccccc2)c(OCc2cccc(C(F)(F)F)c2)n1 | Active

Test system: Echinochloa oryzicola
Experiment: Pre-emergence herbicidal activity against Echinochloa oryzicola at 500 g a.i/ha measured after 14 days
Type: functional, organism-based
Conditions: not given

Row | Compound | Activity
30 | Cn1cc(C(=O)Nc2ccccc2)c(OCc2cccc(C(F)(F)F)c2)n1 | Active

Test system: Schoenoplectiella juncoides
Experiment: Pre-emergence herbicidal activity against Schoenoplectiella juncoides assessed as bleaching of stem/leaf parts
Type: functional, organism-based
Conditions: not given

Row | Compound | Activity
31 | Cn1cc(C(=O)Nc2ccccc2)c(OCc2cccc(C(F)(F)F)c2)n1 | Active

Test system: Cyperus difformis
Experiment: Pre-emergence herbicidal activity against Cyperus difformis assessed as bleaching of stem/leaf parts
Type: functional, organism-based
Conditions: not given

Row | Compound | Activity
32 | Cn1cc(C(=O)Nc2ccccc2)c(OCc2cccc(C(F)(F)F)c2)n1 | Active

Test system: Lindernia procumbens
Experiment: Pre-emergence herbicidal activity against Lindernia procumbens assessed as bleaching of stem/leaf parts
Type: functional, organism-based
Conditions: not given

Row | Compound | Activity
33 | Cn1cc(C(=O)Nc2ccccc2)c(OCc2cccc(C(F)(F)F)c2)n1 | Active

Test system: Elatine triandra
Experiment: Pre-emergence herbicidal activity against Elatine triandra at 500 g a.i/ha measured after 14 days
Type: functional, organism-based
Conditions: not given

Row | Compound | Activity
34 | Cn1cc(C(=O)Nc2ccccc2)c(OCc2cccc(C(F)(F)F)c2)n1 | Active

Test system: Elatine triandra
Experiment: Pre-emergence herbicidal activity against Elatine triandra at 100 g a.i/ha measured after 14 days
Type: functional, organism-based
Conditions: not given

Row | Compound | Activity
35 | Cn1cc(C(=O)Nc2ccccc2)c(OCc2cccc(C(F)(F)F)c2)n1 | Active

Test system: Eleocharis acicularis
Experiment: Pre-emergence herbicidal activity against Eleocharis acicularis at 500 g a.i/ha measured after 14 days
Type: functional, organism-based
Conditions: not given

Row | Compound | Activity
36 | Cn1cc(C(=O)Nc2ccccc2)c(OCc2cccc(C(F)(F)F)c2)n1 | Active

Test system: Cyperus difformis
Experiment: Post-emergence herbicidal activity against Cyperus difformis assessed as bleaching of stem/leaf parts; further: test concentration or dose not given here
Type: functional, organism-based
Conditions: not given

Row | Compound | Activity
37 | Cn1cc(C(=O)Nc2ccccc2)c(OCc2cccc(C(F)(F)F)c2)n1 | Active

Test system: Pontederia vaginalis
Experiment: Pre-emergence herbicidal activity against Monochoria vaginalis assessed as bleaching of stem/leaf parts
Type: functional, organism-based
Conditions: not given

Row | Compound | Activity
38 | Cn1cc(C(=O)Nc2ccccc2)c(OCc2cccc(C(F)(F)F)c2)n1 | Active
